# In patent US20210187008A1, “USE OF ACANTHOPANAX TRIFOLIATUS POLYSACCHARIDE ATP1-1 IN PREPARATION OF DRUGS FOR TREATMENT OF DIABETES” (GUANGDONG PHARMACEUTICAL UNIVERSITY, priority 2019, published 2021):
# What was measured:
# Format in all cases: in vivo
# [1] = tested on: diabetic mice; experiment: Diet and water consumption of diabetic mice; conditions: dimethylbiguanide 185 mg/kg, during the administration period, P<0.01
# Experimental: (§1) After 70 mice were adaptively fed for 3 days, they were fasted and kept feeding water for 12 hours, 0.1 mol/L STZ-streptozotocin solution was injected intraperitoneally, the injection volume was 60 mg/kg, and the injection was continued for 5 days. Seven days after the injection, the mice were fasted and kept feeding water for 8 hours, and the tail was cut to collect blood and the fasting blood glucose of the mice was measured. The model was considered as a successful model with a blood glucose concentration greater than 16.5 mmol/L. Diabetic mice successfully modeled (50) were randomly divided into 5 groups, namely: a high glucose model group, a dimethylbiguanid group (185 mg/kg), ATP1-1 high dose group (140 mg/kg), ATP1-1 medium dose group (70 mg/kg), ATP1-1 low dose group (35 mg/kg), 10 mice in each group, and 10 normal mice were randomly selected as a normal control group. All groups were administrated by intragastric administration, and the normal control group and high glucose model group were administrated the same amount of distilled water. after the successful modelling, the body weight, diet and water consumption and blood glucose of the mice before administration and 1, 2, 3, 4, 5, and 6 weeks after administration were measured, and the glucose tolerance was measured at the end of the experiment.
# [2] = tested on: diabetic mice; experiment: Fasting blood glucose in diabetic mice; conditions: dimethylbiguanide 185 mg/kg
# Experimental: as §1
# [3] = tested on: STZ-induced diabetic mice; experiment: Body weight of STZ-induced diabetic mice; conditions: for Body Weight: dimethylbiguanide 185 mg/kg intragastric
# Experimental: as §1
compound,measurement,setting,value
"CN(C)C(=N)NC(=N)N [Dimethylbiguanide, dimethylbiguanide]",diet and water consumption compared with high glucose model group,[1],significantly reduced
same,fasting blood sugar compared with high glucose group,"[2]; after three weeks of administration, P<0.05",significantly different
same,blood glucose inhibition rate,[2]; at the end of the administration (6 weeks),46.9%
same,Body Weight,"[3]; Week 0 (before administration), x±s, n=8",19.48 ± .78 g
same,Body Weight,[3]; Week 1,19.72 ± .77 g
same,Body Weight,[3]; Week 2,20.40 ± .78 g
same,Body Weight,[3]; Week 3,20.94 ± .73 g
same,Body Weight,[3]; Week 4,21.49 ± .84 g
same,Body Weight,[3]; Week 5,21.70 ± .90 g
same,Body Weight,[3]; Week 6,21.89 ± .89 g
same,body weight compared with high glucose model group,"[3]; dimethylbiguanide 185 mg/kg, after 6 weeks of administration, P<0.05",significantly higher
